Data set [1] has as its system Physalospora piricola. The data set is described as follows: Fungicidal activity, fungicide growth rate method, PP. To be noted: 50 μg/mL; for inhibition at 50 µg/mL: read-out: fungicidal activity (growth inhibition rate), PP. The format is cell-based.
The test system of data set [2] is Rhizoctonia cerealis. Briefly: Fungicidal activity, fungicide growth rate method, RC. Type of data set: cell-based. To be noted: 50 μg/mL; for inhibition at 50 µg/mL: Ceratobasidium cereale, read-out: fungicidal activity (growth inhibition rate), RC.
Data set [3] deals with Sclerotinia sclerotiorum. The data set is described as follows: Fungicidal activity, fungicide growth rate method, SS. The format is cell-based. To be noted: 50 μg/mL; for inhibition at 50 µg/mL: Sclerotinia sclerotiorum.
The test system of data set [4] is wheat Gibberella zeae. The data set is described as follows: microbe, parasite or virus in culture. The format is cell-based. The note with it: for inhibition at 50 µg/mL: Fusarium graminearum, read-out: fungicidal activity (growth inhibition rate), GZ, 50 μg/mL; for fungicidal activity (growth inhibition rate), GZ: 50 μg/mL.
The test system of data set [5] is Cercospora arachidicola. The data set is described as follows: Fungicidal activity, fungicide growth rate method, CA. The note with it: 50 μg/mL; for inhibition at 50 µg/mL: Mycosphaerella arachidis, read-out: fungicidal activity (growth inhibition rate), CA. Type of data set: cell-based.
Data set [6] has as its system Tobacco Mosaic Virus. Briefly: Anti-TMV inactivation activity on tobacco plants. The format is in vivo. Further details: concentration or dose not given beside the values. The note with it: compound mixed with TMV solution 30 minutes, lesions checked three days later.
In data set [7] the test system is Helicoverpa armigera (Hübner). Briefly: Insecticidal activity against Helicoverpa armigera (Hübner). Type of data set: in vivo. The note with it: 100 μg/mL; for pest or weed control at 100 µg/mL: Helicoverpa armigera, read-out: insecticidal activity, Helicoverpa armigera (Hübner).
Data set [8] concerns Phytophthora infestans (Mont.) de Bary. The data set is described as follows: microbe, parasite or virus in culture. The format is cell-based. To be noted: for inhibition at 50 µg/mL: Phytophthora infestans, read-out: fungicidal activity (growth inhibition rate), PI, 50 μg/mL.
For data set [9], the system named is Ostrinia furnacalis. The data set is described as follows: Insecticidal activity against Ostrinia furnacalis. The format is in vivo. To be noted: 100 μg/mL; for pest or weed control at 100 µg/mL: Ostrinia furnacalis, read-out: insecticidal activity, Ostrinia furnacalis.
For data set [10], the system named is Mythimna separate (Walker). Briefly: Insecticidal activity against Mythimna separate (Walker). Type of data set: in vivo. The note with it: 100 μg/mL; for pest or weed control at 100 µg/mL: Mythimna, read-out: insecticidal activity, Mythimna separate (Walker).
Data set [11] concerns Pellicularia sasakii. The data set is described as follows: Fungicidal activity, fungicide growth rate method, PS. The note with it: 50 μg/mL; for inhibition at 50 µg/mL: read-out: fungicidal activity (growth inhibition rate), PS. The format is cell-based.
Data set [12] deals with Alternaria solani. Briefly: Fungicidal activity, fungicide growth rate method, AS. Type of data set: cell-based. To be noted: 50 μg/mL; for inhibition at 50 µg/mL: Alternaria solani, read-out: fungicidal activity (growth inhibition rate), AS.
Data set [13] deals with Caenorhabditis elegans. Briefly: Insecticidal activity against Caenorhabditis elegans. Type of data set: in vivo. The note with it: 100 μg/mL; for pest or weed control at 100 µg/mL: Caenorhabditis elegans, read-out: insecticidal activity, Caenorhabditis elegans.
The subject of data set [14] is Botrytis cinerea. The data set is described as follows: Fungicidal activity, fungicide growth rate method, BC. The note with it: 50 μg/mL; for inhibition at 50 µg/mL: Botrytis cinerea, read-out: fungicidal activity (growth inhibition rate), BC. The format is cell-based.
Data set [15] deals with Apis mellifera ligustica Spin. The note with it: for Death number after 24 h / Death number after 48 h: per replicate of 10 bees.

Consider eight compounds from patent US11716992B2, “5A5B6C tricyclic spirolactone derivative, preparation method therefor and use thereof” (NANKAI UNIVERSITY, priority 2017, dated 2023).

Several values for one entry are separate records, joined by “and”; a condition that tells them apart may be missing. Equal values may be shown once. Read-outs that look alike come from different tables or passages of the source. Some results are limits rather than exact numbers.

In the case of `C=CC[C@@H]1C[C@]2(OC(C)=O)C[C@H](OC(C)=O)O[C@@]23CC=CC[C@H]13` [Zyj07-37-2], the inhibition at 50 µg/mL in [1] is 31%; in data set [2] it was 21%; in [3], > 50%; in data set [4], 3%; in [5] it was 27%; in data set [8], 21%. Further, the inhibition at 50 µg/mL in data set [11] turned out to be 18%; in data set [12], 22%; in data set [14], 18%. In data set [6], the “TMV inactivation (anti-TMV activity)” value was 28%. The pest or weed control at 100 µg/mL in data set [7] was 15%; in data set [9], 0%; in [10], 20%; in data set [13], 13%.

On to `C=CC[C@@H]1C[C@]2(O)C(C(=O)OCC)C(=O)O[C@@]23CC=CC[C@H]13` (some centres unmarked) [Zyj06-180], for which the inhibition at 50 µg/mL is 15% in data set [1]; 0% in data set [2]; > 50% in [3]; 20% in data set [4]; 30% in data set [5]; 19% in [8]. Moreover, the inhibition at 50 µg/mL in data set [11] is 45%; in data set [12] it was 14%; in [14] it was > 50%. Moreover, the “TMV inactivation (anti-TMV activity)” value in [6] stood at 5%. Moreover, the pest or weed control at 100 µg/mL in data set [7] worked out at 5%; in data set [9], 0%; in [10], 20%; in [13] it was 22%. Besides, in data set [15] (dosage 10.6 μg a.i./bee), the “Death rate after 48 h (%)” value was found to be 5.0%. Moreover, the “Death number after 24 h” value in [15] (dosage 10.6 μg a.i./bee) was 1 and 0. In [15] (dosage 10.6 μg a.i./bee), the “Death number after 48 h” value was 1 and 0.

For `C=CC[C@@H]1C[C@]2(O)C[C@H](O[C@]34CCO[C@@]35CC=CC[C@H]5[C@H](CC=C)C4)O[C@@]23CC=CC[C@H]13` [Zyj07-30-1], the “fungicidal activity (growth inhibition rate), PP” value in [1] came out at 83%. In addition, the inhibition at 50 µg/mL in data set [2] was found to be 0%; in [8] it was 21%. For the same compound, the “fungicidal activity (growth inhibition rate), SS” value in data set [3] is recorded as 95%. For the same compound, the “fungicidal activity (growth inhibition rate), GZ” value in data set [4] was found to be 0%. In addition, in [5], the “fungicidal activity (growth inhibition rate), CA” value was found to be 41%. The “TMV inactivation (anti-TMV activity)” value in data set [6] amounted to 8%. Moreover, the pest or weed control at 100 µg/mL in data set [7], in data set [9] and in data set [10] was 0% in each case. For the same compound, the “Death rate after 48 h (%)” value in data set [15] (dosage 5.12 μg a.i./bee) worked out at 0%; in [15] (dosage 10.6 μg a.i./bee) it was 5.0%. Besides, the “Death number after 24 h” value in [15] (dosage 5.12 μg a.i./bee) and in [15] (dosage 10.6 μg a.i./bee) was 0 throughout. The “Death number after 48 h” value in data set [15] (dosage 5.12 μg a.i./bee) was 0; in [15] (dosage 10.6 μg a.i./bee), 0 and 1. In addition, the “fungicidal activity (growth inhibition rate), PS” value in data set [11] was found to be 22%. Further, in data set [12], the “fungicidal activity (growth inhibition rate), AS” value is on record as 14%. In data set [13], the “insecticidal activity, Caenorhabditis elegans” value is recorded as 5%. In addition, the “fungicidal activity (growth inhibition rate), BC” value in data set [14] amounted to 5%.

Turning to `CCOC(=O)C(C(=O)OCC)C1CC(=O)[C@@]2(O)CC=CC[C@H]12` (some centres unmarked) [Zyj06-113-2], the inhibition at 50 µg/mL in data set [1] worked out at 26%; in data set [2], 0%; in data set [3] it was 36%; in [4], 0%; in data set [5], 24%; in data set [8] it was 40%. Moreover, the inhibition at 50 µg/mL in data set [11] is 25%; in data set [12], 3%; in data set [14] it was > 50%. In addition, the “TMV inactivation (anti-TMV activity)” value in [6] is 28%. Also, the pest or weed control at 100 µg/mL was determined as 5% in data set [7], 15% in [9], 20% in data set [10] and 7% in data set [13]. In addition, the “Death rate after 48 h (%)” value amounted to 10.0% in data set [15] (dosage 9.69 μg a.i./bee) and 15.0% in data set [15] (dosage 12.6 μg a.i./bee). In addition, the “Death number after 24 h” value in data set [15] (dosage 9.69 μg a.i./bee) and in [15] (dosage 12.6 μg a.i./bee) was 0 throughout. Also, the “Death number after 48 h” value in data set [15] (dosage 9.69 μg a.i./bee) is 0 and 2; in [15] (dosage 12.6 μg a.i./bee), 1 and 2.

Take `C=CC[C@@H]1C[C@]2(OC(C)=O)C[C@@H](OC(C)=O)O[C@@]23CC=CC[C@H]13` [Zyj07-37-1]: the inhibition at 50 µg/mL in [1] was > 50%; in [2], 7%; in [3] it was > 50%; in data set [4], 0%; in [5], 14%; in data set [8] it was 15%. For the same compound, the inhibition at 50 µg/mL in data set [11] stood at 0%; in data set [12], 14%. Besides, the “TMV inactivation (anti-TMV activity)” value in [6] is listed as 16%. Also, the pest or weed control at 100 µg/mL in [7] was 15%; in data set [9], 10%; in [10], 20%; in data set [13] it was 20%. Besides, the “Death rate after 48 h (%)” value in data set [15] (dosage 7.55 μg a.i./bee) and in data set [15] (dosage 15.3 μg a.i./bee) was 0% each time. Further, the “Death number after 24 h” value in data set [15] (dosage 7.55 μg a.i./bee) and in data set [15] (dosage 15.3 μg a.i./bee) was 0 throughout. Moreover, the “Death number after 48 h” value in [15] (dosage 7.55 μg a.i./bee) and in data set [15] (dosage 15.3 μg a.i./bee) was 0 each time.

`C=CC[C@@H]1C[C@]2(O)C[C@H](O[C@]34CCO[C@@]35CC=CC[C@H]5[C@H](CC=C)C4)O[C@@]23CC=CC[C@H]13` [Zyj07-30-2]: the “fungicidal activity (growth inhibition rate), PP” value in data set [1] is 48%. The “fungicidal activity (growth inhibition rate), RC” value in [2] worked out at 0%. Further, the “fungicidal activity (growth inhibition rate), SS” value in [3] was 95%. In addition, the “fungicidal activity (growth inhibition rate), GZ” value in [4] is reported as 27%. For the same compound, the “fungicidal activity (growth inhibition rate), CA” value in data set [5] amounted to 73%. In data set [6], the “TMV inactivation (anti-TMV activity)” value came out at 16%. Moreover, in [7], the “insecticidal activity, Helicoverpa armigera (Hübner)” value is recorded as 0%. Also, the “fungicidal activity (growth inhibition rate), PI” value in [8] (50 μg/mL) was determined as 14%. Besides, the “insecticidal activity, Ostrinia furnacalis” value in data set [9] is reported as 0%. In [10], the “insecticidal activity, Mythimna separate (Walker)” value is listed as 0%. Besides, the “fungicidal activity (growth inhibition rate), PS” value in data set [11] came out at 0%. Further, the “fungicidal activity (growth inhibition rate), AS” value in [12] amounted to 0%. Besides, in [14], the “fungicidal activity (growth inhibition rate), BC” value was 34%.

Regarding `C=CC[C@@H]1C[C@]2(O)CCO[C@@]23C[C@@H]2O[C@@H]2C[C@H]13` [Zyj07-31-1], the inhibition at 50 µg/mL is > 50% in data set [1]; 7% in data set [2]; 0% in data set [3]; 7% in data set [4]; 41% in data set [5]; 15% in data set [8]. Moreover, the inhibition at 50 µg/mL worked out at 0% in [11], 14% in data set [12] and 36% in [14]. Moreover, the “TMV inactivation (anti-TMV activity)” value in data set [6] is 11%. The pest or weed control at 100 µg/mL in [7] amounted to 0%; in data set [9], 0%; in data set [10], 0%; in [13] it was 18%.

In the case of `C=CC[C@@H]1C[C@]2(O)CCO[C@@]23CC[C@H](O)C[C@H]13` [Zyj07-33], the inhibition at 50 µg/mL in data set [1] is > 50%; in data set [2] it was 41%; in [3] it was 31%; in [4] it was 27%; in data set [5] it was 46%; in data set [8], 16%. Moreover, the inhibition at 50 µg/mL is 27% in [11], 24% in data set [12] and > 50% in data set [14]. In data set [6], the “TMV inactivation (anti-TMV activity)” value came out at 9%. Besides, the pest or weed control at 100 µg/mL in data set [7] is 15%; in data set [9], 10%; in data set [10], > 30%; in data set [13], 27%.
